Legend:
Format in all cases: functional
MT4 [1] = test: Cytopathogenicity against HIV-2 induced replication in MT-4 cells was determined; details: Homo sapiens, read-out: ED50 (the source's name)
MT4 [2] = test: Cytotoxic dose to reduce the viability of MT-4 cells by 50 % was determined; details: Homo sapiens, read-out: CD50 (the source's name)
[3] = Ratio of CD50 value to that of ED50 value was determined and expressed as selectivity index
MT4 [4] = test: Cytopathogenicity against HIV-1 induced, replication in MT-4 cells was determined; details: Homo sapiens, read-out: ED50 (the source's name)

Compound | EC50 (MT4 [1]) | CC50 (MT4 [2]) | Selectivity index [3] | EC50 (MT4 [4])
[C-]#[N+]C1CC(n2ccc(=O)[nH]c2=O)OC1CO (configuration not stated) | > 500000 nM | ≥ 500000 nM | < 1 | > 500000 nM
Cc1cn([C@H]2C[C@H](N=[N+]=[N-])[C@@H](CO)O2)c(=O)[nH]c1=O [ZIDOVUDINE] | 4 nM | 6300 nM | 1580 | 4 nM
[C-]#[N+]C1CC(n2cc(C)c(=O)[nH]c2=O)OC1CO (configuration not stated) | > 800 nM | 880 nM | < 1.1 | > 800 nM

Reference: ChEMBL document CHEMBL1124706, “Synthesis, antiretrovirus effects, and phosphorylation kinetics of 3'-isocyano-3'-deoxythymidine and 3'-isocyano-2',3'-dideoxyuridine” (1990)
